The record followed here is ChEMBL document CHEMBL1141144, “Discovery and structure-activity relationship of 3-aryl-5-aryl-1,2,4-oxadiazoles as a new series of apoptosis inducers and potential anticancer agents” (J Med Chem, 2005).

What all share (assay type): functional
The test system of one test is T47D. As to the kind of experiment: Growth inhibitory activity aganist T47D cells done for 48 hr at 37 degree C with compound. The following applies: Homo sapiens.
The test system of another test is NCI-H1299. As to the kind of experiment: Growth inhibitory activity against H1299 cells done for 48 h at 37 degree C with compound. The settings on record: Homo sapiens, NCI-H1299, 48 h.
The subject of the next test is DLD-1. The test can be described thus: Growth inhibitory activity against DLD-1 cells done for 48 h at 37 degree C with compound. The settings on record: Homo sapiens, DLD-1, 48 h.
The next test is filed under the species Mus musculus. As to the kind of experiment: Inhibition of tumor growth in mice with MX-1 tumor after treatment in combination with paclitaxel.

As usually defined, the GI50 is the concentration giving 50% growth inhibition. On to `FC(F)(F)c1ccc(-c2noc(-c3sccc3Cl)n2)cc1`, for which the GI50 in the test with T47D is 0.22 µM; with NCI-H1299, above 10 µM; in the test with DLD-1, 0.77 µM.

As for `FC(F)(F)c1ccc(-c2noc(-c3occc3Br)n2)cc1`, the concentration for 50% growth inhibition (GI50) in the test on T47D was 0.32 µM; with NCI-H1299 it was above 10 µM; in the test on DLD-1 it was 0.13 µM.

Take `Clc1ccc(-c2noc(-c3occc3Br)n2)nc1`: the results for the concentration for 50% growth inhibition (GI50) in the test on T47D, in the test with NCI-H1299 and in the test with DLD-1 were 0.38 µM, above 10 µM and 0.43 µM, respectively.

On to `Clc1ccc(-c2noc(-c3sccc3Cl)n2)nc1`, for which the results for the concentration for 50% growth inhibition (GI50) with T47D, with NCI-H1299 and in the test on DLD-1 were 0.2 µM, above 10 µM and 0.8 µM, respectively.

Turning to `Cc1ccc(-c2noc(-c3sccc3Cl)n2)cc1`, the results for the GI50 in the test with T47D, in the test with NCI-H1299 and in the test on DLD-1 were 2.2 µM, above 10 µM and 0.85 µM, respectively.

Consider `Clc1ccc(-c2noc(-c3occc3Cl)n2)nc1`, for which the GI50 in the test with T47D was 13 µM; in the test with NCI-H1299, above 10 µM; in the test with DLD-1, 0.6 µM.

Take `Clc1ccc(-c2noc(-c3sccc3Br)n2)cc1`: the results for the GI50 in the test with T47D, in the test on NCI-H1299 and in the test with DLD-1 were 0.57 µM, above 10 µM and 0.58 µM, respectively.

Broadly, the Inhibition is the drop in the measured response relative to a control, in per cent. Consider `Clc1ccc(-c2noc(-c3occc3Cl)n2)cc1`, for which the 50% growth inhibitory concentration (GI50) in the test with T47D was 0.12 µM; in the test with NCI-H1299 it was above 10 µM; in the test with DLD-1, 0.51 µM. Moreover, the Inhibition in the test filed under Mus musculus is 83%.

For the molecule `Clc1ccc(-c2noc(-c3occc3Br)n2)cc1`, the GI50 in the test on T47D is 0.12 µM; with NCI-H1299 it was above 10 µM; in the test with DLD-1 it was 0.51 µM.

In the case of `Clc1ccc(-c2noc(-c3sccc3Cl)n2)cc1`, the 50% growth inhibitory concentration (GI50) was 0.19 µM in the test with T47D, above 10 µM in the test on NCI-H1299 and 0.4 µM in the test on DLD-1.

With `FC(F)(F)c1ccc(-c2noc(-c3occc3Cl)n2)cc1`, the GI50 in the test with T47D is 0.17 µM; in the test on NCI-H1299, above 10 µM; in the test on DLD-1 it was 0.35 µM.

Turning to `FC(F)(F)c1ccc(-c2noc(-c3sccc3Cl)n2)nc1`, the concentration for 50% growth inhibition (GI50) was 0.35 µM in the test on T47D, above 10 µM in the test with NCI-H1299 and 0.93 µM in the test with DLD-1.

`COc1ccc(-c2noc(-c3sccc3Cl)n2)cc1`: the 50% growth inhibitory concentration (GI50) in the test on T47D is 0.52 µM; with NCI-H1299, above 10 µM; with DLD-1 it was 0.93 µM.
